Test results published in the kinase profiling compilation of Christmann-Franck et al. (2016).

Tests used:
Assay in all cases: radiometric filter-binding kinase assay, Kinase HotSpot
Settings in all cases: compound 0.5 µM; ATP 10 µM
CSNK1E (human) = CSNK1E (human) (UniProt P49674)
CDK9 CCNK (human) = CDK9 CCNK (human) (UniProt O75909+P50750)
RPS6KA3 KD1 KD2 (human) = RPS6KA3 KD1 KD2 (human) (UniProt P51812)
MAPK1 (human) = MAPK1 (human) (UniProt P28482)
CDK2 CCNA2 (human) = CDK2 CCNA2 (human) (UniProt P24941+P20248)
TXK (human) = TXK (human) (UniProt P42681)
NEK7 (human) = NEK7 (human) (UniProt Q8TDX7)
CDK2 CCNE1 (human) = CDK2 CCNE1 (human) (UniProt P24941+P24864)
MAP4K2 (human) = MAP4K2 (human) (UniProt Q12851)
TAOK1 (human) = TAOK1 (human) (UniProt Q7L7X3)
TSSK2 (human) = TSSK2 (human) (UniProt Q96PF2)
CHEK1 (human) = CHEK1 (human) (UniProt O14757)
CDK4 CCND3 (human) = CDK4 CCND3 (human) (UniProt P30281+P11802)
MAP3K8 (human) = MAP3K8 (human) (UniProt P41279)
CAMK2D (human) = CAMK2D (human) (UniProt Q13557)
RPS6KA2 KD1 KD2 (human) = RPS6KA2 KD1 KD2 (human) (UniProt Q15349)
PIM2 (human) = PIM2 (human) (UniProt Q9P1W9)
HIPK3 (human) = HIPK3 (human) (UniProt Q9H422)
FER (human) = FER (human) (UniProt P16591)
FGFR4 (human) = FGFR4 (human) (UniProt P22455)
CDK5 CDK5R1 p25 (human) = CDK5 CDK5R1 p25 (human) (UniProt Q00535+Q15078)
RIPK2 (human) = RIPK2 (human) (UniProt O43353)
EPHA3 (human) = EPHA3 (human) (UniProt P29320)
ULK1 (human) = ULK1 (human) (UniProt O75385)
MATK (human) = MATK (human) (UniProt P42679)
NEK3 (human) = NEK3 (human) (UniProt P51956)
PRKD3 (human) = PRKD3 (human) (UniProt O94806)
CHUK (human) = CHUK (human) (UniProt O15111)
CHEK2 (human) = CHEK2 (human) (UniProt O96017)
PRKCZ (human) = PRKCZ (human) (UniProt Q05513)
TEC (human) = TEC (human) (UniProt P42680)
BLK (human) = BLK (human) (UniProt P51451)
PBK (human) = PBK (human) (UniProt Q96KB5)
MAPK8 (human) = MAPK8 (human) (UniProt P45983)
MARK4 (human) = MARK4 (human) (UniProt Q96L34)
TYRO3 (human) = TYRO3 (human) (UniProt Q06418)
TTK (human) = TTK (human) (UniProt P33981)
PNCK (human) = PNCK (human) (UniProt Q6P2M8)
FRK (human) = FRK (human) (UniProt P42685)
MELK (human) = MELK (human) (UniProt Q14680)
KIT (human) = KIT (human) (UniProt P10721)

Chain of TYRO3 (human) (Q06418 whole entry, looked up): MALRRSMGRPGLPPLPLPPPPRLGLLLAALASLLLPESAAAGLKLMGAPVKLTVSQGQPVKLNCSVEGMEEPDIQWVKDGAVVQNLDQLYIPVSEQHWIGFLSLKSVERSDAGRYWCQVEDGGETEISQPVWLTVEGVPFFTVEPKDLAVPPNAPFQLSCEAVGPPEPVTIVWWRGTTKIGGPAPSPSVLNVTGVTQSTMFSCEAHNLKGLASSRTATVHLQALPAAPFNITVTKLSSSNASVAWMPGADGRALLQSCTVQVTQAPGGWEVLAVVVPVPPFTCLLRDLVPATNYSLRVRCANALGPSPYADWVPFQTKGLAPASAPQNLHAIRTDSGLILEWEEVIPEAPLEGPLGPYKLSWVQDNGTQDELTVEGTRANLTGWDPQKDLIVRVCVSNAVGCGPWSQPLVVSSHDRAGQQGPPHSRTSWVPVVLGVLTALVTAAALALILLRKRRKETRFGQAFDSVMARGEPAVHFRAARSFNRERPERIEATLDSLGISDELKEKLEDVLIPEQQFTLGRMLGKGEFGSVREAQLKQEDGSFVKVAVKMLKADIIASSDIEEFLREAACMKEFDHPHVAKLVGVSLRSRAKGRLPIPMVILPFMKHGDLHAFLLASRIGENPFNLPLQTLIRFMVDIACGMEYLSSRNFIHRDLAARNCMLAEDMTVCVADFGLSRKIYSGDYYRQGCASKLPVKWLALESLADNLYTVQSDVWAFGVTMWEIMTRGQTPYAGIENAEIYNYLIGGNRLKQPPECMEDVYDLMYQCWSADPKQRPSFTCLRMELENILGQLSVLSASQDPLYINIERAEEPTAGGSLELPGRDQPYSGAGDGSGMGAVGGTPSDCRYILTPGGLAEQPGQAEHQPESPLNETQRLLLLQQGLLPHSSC
Chain of MELK (human) (Q14680 whole entry, looked up): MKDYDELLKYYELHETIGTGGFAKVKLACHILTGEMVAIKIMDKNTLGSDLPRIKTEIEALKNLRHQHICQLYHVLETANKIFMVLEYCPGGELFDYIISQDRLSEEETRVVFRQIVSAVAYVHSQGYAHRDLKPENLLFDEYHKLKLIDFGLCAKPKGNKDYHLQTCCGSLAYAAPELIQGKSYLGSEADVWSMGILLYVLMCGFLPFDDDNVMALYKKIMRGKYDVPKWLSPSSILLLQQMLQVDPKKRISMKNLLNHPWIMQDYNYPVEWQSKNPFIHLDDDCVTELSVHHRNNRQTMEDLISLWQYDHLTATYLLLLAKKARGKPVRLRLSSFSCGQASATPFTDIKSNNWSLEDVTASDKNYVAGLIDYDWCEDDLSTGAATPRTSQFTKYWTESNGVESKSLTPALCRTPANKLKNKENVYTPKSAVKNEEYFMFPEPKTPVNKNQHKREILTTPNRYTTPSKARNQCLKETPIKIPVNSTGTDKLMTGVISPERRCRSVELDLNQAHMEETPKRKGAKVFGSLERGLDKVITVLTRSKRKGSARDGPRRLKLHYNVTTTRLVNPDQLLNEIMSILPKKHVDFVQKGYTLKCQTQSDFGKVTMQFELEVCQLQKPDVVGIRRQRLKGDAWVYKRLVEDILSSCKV
Chain of MAP4K2 (human) (Q12851 whole entry, looked up): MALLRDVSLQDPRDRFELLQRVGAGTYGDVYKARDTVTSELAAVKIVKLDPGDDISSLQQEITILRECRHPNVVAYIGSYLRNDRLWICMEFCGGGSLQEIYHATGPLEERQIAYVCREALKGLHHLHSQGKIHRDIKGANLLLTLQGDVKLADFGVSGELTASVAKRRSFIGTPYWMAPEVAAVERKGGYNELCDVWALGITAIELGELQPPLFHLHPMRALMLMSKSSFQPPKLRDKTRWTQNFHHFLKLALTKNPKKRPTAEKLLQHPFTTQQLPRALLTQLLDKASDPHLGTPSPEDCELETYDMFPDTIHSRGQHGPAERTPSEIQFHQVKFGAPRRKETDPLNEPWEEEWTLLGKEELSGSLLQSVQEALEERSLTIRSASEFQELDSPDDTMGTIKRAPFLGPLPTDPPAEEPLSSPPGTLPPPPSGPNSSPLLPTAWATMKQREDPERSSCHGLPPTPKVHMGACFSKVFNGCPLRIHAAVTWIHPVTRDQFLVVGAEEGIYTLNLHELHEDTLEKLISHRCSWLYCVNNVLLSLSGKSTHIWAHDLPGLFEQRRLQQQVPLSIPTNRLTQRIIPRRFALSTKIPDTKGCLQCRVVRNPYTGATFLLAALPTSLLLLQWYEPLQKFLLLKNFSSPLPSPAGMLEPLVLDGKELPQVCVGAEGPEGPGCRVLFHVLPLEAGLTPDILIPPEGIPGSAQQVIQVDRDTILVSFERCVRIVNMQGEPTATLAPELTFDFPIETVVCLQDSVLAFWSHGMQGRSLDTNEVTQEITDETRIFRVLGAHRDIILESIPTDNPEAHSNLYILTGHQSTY
Chain of PRKD3 (human) (O94806 whole entry, looked up): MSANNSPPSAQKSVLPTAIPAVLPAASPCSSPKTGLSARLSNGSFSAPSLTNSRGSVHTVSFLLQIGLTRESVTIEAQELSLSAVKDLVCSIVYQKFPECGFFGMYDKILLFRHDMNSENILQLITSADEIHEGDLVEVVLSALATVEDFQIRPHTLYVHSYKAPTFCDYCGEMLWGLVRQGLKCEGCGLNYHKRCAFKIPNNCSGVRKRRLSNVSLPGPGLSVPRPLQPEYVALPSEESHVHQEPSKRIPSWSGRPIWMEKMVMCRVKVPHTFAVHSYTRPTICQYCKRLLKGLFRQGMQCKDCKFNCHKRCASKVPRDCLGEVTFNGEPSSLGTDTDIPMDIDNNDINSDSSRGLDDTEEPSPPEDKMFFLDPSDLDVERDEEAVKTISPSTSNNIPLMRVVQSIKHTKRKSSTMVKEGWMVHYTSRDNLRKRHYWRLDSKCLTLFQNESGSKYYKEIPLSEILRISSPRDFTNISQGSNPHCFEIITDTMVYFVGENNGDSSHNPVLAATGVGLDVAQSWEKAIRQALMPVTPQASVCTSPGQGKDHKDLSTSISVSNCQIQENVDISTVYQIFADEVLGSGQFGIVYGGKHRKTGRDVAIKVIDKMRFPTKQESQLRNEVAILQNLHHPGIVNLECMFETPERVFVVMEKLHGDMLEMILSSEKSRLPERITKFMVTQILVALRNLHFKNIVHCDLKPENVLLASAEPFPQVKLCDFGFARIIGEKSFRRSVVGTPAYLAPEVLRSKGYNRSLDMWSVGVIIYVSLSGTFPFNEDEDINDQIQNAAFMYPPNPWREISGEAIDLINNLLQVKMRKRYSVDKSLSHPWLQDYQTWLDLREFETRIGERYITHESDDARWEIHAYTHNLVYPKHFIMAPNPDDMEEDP
Chain of PBK (human) (Q96KB5 whole entry, looked up): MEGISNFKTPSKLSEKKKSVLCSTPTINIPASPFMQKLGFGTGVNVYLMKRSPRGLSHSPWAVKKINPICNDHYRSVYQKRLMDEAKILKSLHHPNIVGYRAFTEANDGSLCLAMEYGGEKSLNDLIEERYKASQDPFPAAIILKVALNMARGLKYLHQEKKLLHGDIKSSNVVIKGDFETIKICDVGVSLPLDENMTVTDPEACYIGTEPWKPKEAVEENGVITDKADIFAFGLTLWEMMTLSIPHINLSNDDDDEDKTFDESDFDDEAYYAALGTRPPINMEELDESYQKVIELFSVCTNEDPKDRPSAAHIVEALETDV
Chain of MAPK8 (human) (P45983 whole entry, looked up): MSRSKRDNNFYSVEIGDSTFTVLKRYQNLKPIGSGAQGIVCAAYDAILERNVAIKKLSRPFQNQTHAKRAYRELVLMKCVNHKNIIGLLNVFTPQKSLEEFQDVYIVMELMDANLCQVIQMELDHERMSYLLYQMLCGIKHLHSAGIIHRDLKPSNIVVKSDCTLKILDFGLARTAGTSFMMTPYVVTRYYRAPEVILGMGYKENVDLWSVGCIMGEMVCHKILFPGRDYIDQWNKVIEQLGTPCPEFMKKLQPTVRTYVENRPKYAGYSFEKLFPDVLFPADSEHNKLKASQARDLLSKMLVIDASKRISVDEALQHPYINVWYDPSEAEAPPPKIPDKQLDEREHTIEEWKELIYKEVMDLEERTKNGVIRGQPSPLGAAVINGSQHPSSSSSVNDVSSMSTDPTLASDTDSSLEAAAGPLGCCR
Chain of NEK7 (human) (Q8TDX7 whole entry, looked up): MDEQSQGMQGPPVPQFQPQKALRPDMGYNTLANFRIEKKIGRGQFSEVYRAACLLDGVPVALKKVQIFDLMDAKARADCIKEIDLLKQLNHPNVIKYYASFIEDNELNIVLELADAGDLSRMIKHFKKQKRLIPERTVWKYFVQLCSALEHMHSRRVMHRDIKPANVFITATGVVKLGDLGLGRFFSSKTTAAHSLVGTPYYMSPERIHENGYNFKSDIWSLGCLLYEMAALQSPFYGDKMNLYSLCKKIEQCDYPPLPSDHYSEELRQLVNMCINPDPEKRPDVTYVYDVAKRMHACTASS
Chain of RPS6KA2 KD1 KD2 (human) (Q15349 whole entry, looked up): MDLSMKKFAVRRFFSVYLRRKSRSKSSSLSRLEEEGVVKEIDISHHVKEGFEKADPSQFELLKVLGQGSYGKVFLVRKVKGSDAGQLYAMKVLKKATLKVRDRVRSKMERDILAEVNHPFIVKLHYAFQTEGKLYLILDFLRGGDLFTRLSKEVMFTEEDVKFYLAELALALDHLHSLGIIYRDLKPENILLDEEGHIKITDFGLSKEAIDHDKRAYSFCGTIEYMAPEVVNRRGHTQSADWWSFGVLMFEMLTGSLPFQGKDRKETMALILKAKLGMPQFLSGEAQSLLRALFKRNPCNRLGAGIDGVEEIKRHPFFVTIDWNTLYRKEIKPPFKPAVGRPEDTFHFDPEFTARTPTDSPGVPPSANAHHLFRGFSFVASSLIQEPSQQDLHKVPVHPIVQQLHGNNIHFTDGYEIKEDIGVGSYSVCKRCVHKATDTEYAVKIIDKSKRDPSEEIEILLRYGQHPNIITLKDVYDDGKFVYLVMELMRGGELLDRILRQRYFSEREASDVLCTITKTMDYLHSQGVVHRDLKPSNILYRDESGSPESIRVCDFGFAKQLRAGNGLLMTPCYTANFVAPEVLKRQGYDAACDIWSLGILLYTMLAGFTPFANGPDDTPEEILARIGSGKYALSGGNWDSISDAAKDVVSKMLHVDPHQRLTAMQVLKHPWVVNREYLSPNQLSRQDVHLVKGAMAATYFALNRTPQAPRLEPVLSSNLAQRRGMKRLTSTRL

## O=C1NC(=O)C(c2cn(CCCn3ccnc3)c3ccccc23)=C1Nc1ccccc1
CSNK1E (human)
  residual activity: 96.7%
CDK9 CCNK (human)
  residual activity: 64.6%
RPS6KA3 KD1 KD2 (human)
  residual activity: 3.85%
MAPK1 (human)
  residual activity: 94.8%
CDK2 CCNA2 (human)
  residual activity: 83.4%
TXK (human)
  residual activity: 95.3%
NEK7 (human)
  residual activity: 102%
CDK2 CCNE1 (human)
  residual activity: 81.8%
MAP4K2 (human)
  residual activity: 85.7%
TAOK1 (human)
  residual activity: 101%
TSSK2 (human)
  residual activity: 97.9%
CHEK1 (human)
  residual activity: 76.6%
CDK4 CCND3 (human)
  residual activity: 91%
MAP3K8 (human)
  residual activity: 100%
CAMK2D (human)
  residual activity: 85.4%
RPS6KA2 KD1 KD2 (human)
  residual activity: 3.17%
PIM2 (human)
  residual activity: 102%
HIPK3 (human)
  residual activity: 102%
FER (human)
  residual activity: 56.1%
FGFR4 (human)
  residual activity: 74.6%
CDK5 CDK5R1 p25 (human)
  residual activity: 86%
RIPK2 (human)
  residual activity: 84.3%
EPHA3 (human)
  residual activity: 102%
ULK1 (human)
  residual activity: 90.1%
MATK (human)
  residual activity: 89.8%
NEK3 (human)
  residual activity: 99.5%
PRKD3 (human)
  residual activity: 80%
CHUK (human)
  residual activity: 105%
CHEK2 (human)
  residual activity: 88.3%
PRKCZ (human)
  residual activity: 99.6%
TEC (human)
  residual activity: 162%
BLK (human)
  residual activity: 90.9%
PBK (human)
  residual activity: 104%
MAPK8 (human)
  residual activity: 99.6%
MARK4 (human)
  residual activity: 92.6%
TYRO3 (human)
  residual activity: 99.6%
TTK (human)
  residual activity: 121%
PNCK (human)
  residual activity: 90.6%
FRK (human)
  residual activity: 107%
MELK (human)
  residual activity: 101%
KIT (human)
  residual activity: 90.2%

## O=c1cc(N2CCOCC2)oc2c1ccc1ccccc12
CSNK1E (human)
  residual activity: 92.5%
CDK9 CCNK (human)
  residual activity: 99.9%
RPS6KA3 KD1 KD2 (human)
  residual activity: 103%
MAPK1 (human)
  residual activity: 104%
CDK2 CCNA2 (human)
  residual activity: 100%
TXK (human)
  residual activity: 98.9%
NEK7 (human)
  residual activity: 96.6%
CDK2 CCNE1 (human)
  residual activity: 119%
MAP4K2 (human)
  residual activity: 118%
TAOK1 (human)
  residual activity: 97.5%
TSSK2 (human)
  residual activity: 100%
CHEK1 (human)
  residual activity: 104%
CDK4 CCND3 (human)
  residual activity: 96.8%
MAP3K8 (human)
  residual activity: 98.3%
CAMK2D (human)
  residual activity: 99.9%
RPS6KA2 KD1 KD2 (human)
  residual activity: 98.8%
PIM2 (human)
  residual activity: 78.8%
HIPK3 (human)
  residual activity: 107%
FER (human)
  residual activity: 91.2%
FGFR4 (human)
  residual activity: 108%
CDK5 CDK5R1 p25 (human)
  residual activity: 98.9%
RIPK2 (human)
  residual activity: 104%
EPHA3 (human)
  residual activity: 112%
ULK1 (human)
  residual activity: 96.1%
MATK (human)
  residual activity: 90.7%
NEK3 (human)
  residual activity: 111%
PRKD3 (human)
  residual activity: 98.8%
CHUK (human)
  residual activity: 93.4%
CHEK2 (human)
  residual activity: 104%
PRKCZ (human)
  residual activity: 106%
TEC (human)
  residual activity: 150%
BLK (human)
  residual activity: 104%
PBK (human)
  residual activity: 103%
MAPK8 (human)
  residual activity: 97.2%
MARK4 (human)
  residual activity: 102%
TYRO3 (human)
  residual activity: 97.3%
TTK (human)
  residual activity: 103%
PNCK (human)
  residual activity: 97.4%
FRK (human)
  residual activity: 98.8%
MELK (human)
  residual activity: 103%
KIT (human)
  residual activity: 105%
